Patent publication US20250144094A1 (Erasca, Inc., priority 2021, published 2025)

Each compound was assayed against Recombinant human ULK1 (1-649) (Homo sapiens (Human), UniProt O75385) (assay: ULK1 ADP Glo kinase activity assay, new method (ULKtide peptide substrate)). Conditions: 25° C., 40 minutes, read-out: ULK1 biochemical IC50.
Procedure, shortened: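 GST-tagged human ULK1 (1-649) from Sf9 cells was reacted with ULKtide peptide and ATP for 40 min at 25 °C across 12-point compound dilutions from 10 μM. ADP formed was quantified by ADP-Glo luminescence; IC50 came from four-parameter fits relative to DMSO controls.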

Recombinant human ULK1 (1-649), sequence (O75385 1-649): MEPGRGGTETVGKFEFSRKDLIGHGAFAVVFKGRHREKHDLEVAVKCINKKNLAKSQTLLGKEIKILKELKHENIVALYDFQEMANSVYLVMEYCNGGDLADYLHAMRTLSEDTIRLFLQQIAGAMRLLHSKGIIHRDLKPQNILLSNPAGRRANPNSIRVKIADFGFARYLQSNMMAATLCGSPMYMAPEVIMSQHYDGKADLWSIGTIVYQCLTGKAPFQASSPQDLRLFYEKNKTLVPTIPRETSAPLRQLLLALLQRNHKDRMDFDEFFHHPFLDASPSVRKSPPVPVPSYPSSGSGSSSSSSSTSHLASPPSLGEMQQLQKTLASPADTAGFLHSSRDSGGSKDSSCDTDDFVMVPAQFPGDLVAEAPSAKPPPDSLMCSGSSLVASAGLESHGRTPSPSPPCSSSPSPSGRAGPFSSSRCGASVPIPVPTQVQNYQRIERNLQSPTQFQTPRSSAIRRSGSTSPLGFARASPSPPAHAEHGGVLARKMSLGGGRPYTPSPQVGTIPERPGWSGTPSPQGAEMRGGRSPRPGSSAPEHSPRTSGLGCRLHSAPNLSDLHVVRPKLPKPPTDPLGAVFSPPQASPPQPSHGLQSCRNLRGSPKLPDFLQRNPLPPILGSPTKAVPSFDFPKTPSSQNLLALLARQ

| IC50 [nM] | SMILES |
| --- | --- |
| ≤ 5 | C[C@@H]1CN(c2ccc(Nc3ncc(C(F)(F)F)c(-c4cc5c(s4)C(=O)N(C4CC4)CCS5(=O)=O)n3)c(C3CC3)c2)C[C@H](C)N1C [Example 343, 4-Cyclopropyl-7-(2-((2-cyclopropyl-4-((3S,5R)-3,4,5-trimethylpiperazin-1-yl)phenyl)amino)-5-(trifluoromethyl)pyrimidin-4-yl)-3,4-dihydrothieno[2,3-f][1,4]thiazepin-5(2H)-one 1,1-dioxide] |
| ≤ 5 | CCc1cc(N2C[C@H](C)N[C@@H](C)C2)ccc1Nc1ncc(C(F)(F)F)c(-c2cc3c(s2)C(=O)N(C2CC2)CCS3(=O)=O)n1 [Example 356, 4-cyclopropyl-7-(2-((4-((3S,5S)-3,5-dimethylpiperazin-1-yl)-2-ethylphenyl)amino)-5-(trifluoromethyl)pyrimidin-4-yl)-3,4-dihydrothieno[2,3-f][1,4]thiazepin-5(2H)-one 1,1-dioxide] |
| ≤ 5 | CCc1cc(N2C[C@H]3C[C@@H]2CN3C)ccc1Nc1ncc(C(F)(F)F)c(-c2cc3c(s2)C(=O)N(C2CC2)CCS3(=O)=O)n1 [Example 323, 4-cyclopropyl-7-(2-((2-ethyl-4-((1R,4R)-5-methyl-2,5-diazabicyclo[2.2.1]heptan-2-yl)phenyl)amino)-5-(trifluoromethyl)pyrimidin-4-yl)-3,4-dihydrothieno[2,3-f][1,4]thiazepin-5(2H)-one 1,1-dioxide] |
| ≤ 5 | CCc1cc2c(cc1Nc1ncc(C(F)(F)F)c(-c3cc4c(s3)C(=O)N(C3CC3)CCS4(=O)=O)n1)CNCC2 [Example 220, 4-cyclopropyl-7-(2-((6-ethyl-1,2,3,4-tetrahydroisoquinolin-7-yl)amino)-5-(trifluoromethyl)pyrimidin-4-yl)-3,4-dihydrothieno[2,3-f][1,4]thiazepin-5(2H)-one 1,1-dioxide] |

More lines, now with the values behind:

| SMILES | IC50 [nM] |
| --- | --- |
| C[C@H]1CN(c2ccc(Nc3ncc(C(F)(F)F)c(-c4cc5c(s4)C(=O)N(C4COC4)CCS5(=O)=O)n3)c(C3CC3)c2)C[C@H](C)N1 [Example 344, 7-(2-((2-Cyclopropyl-4-((3S,5S)-3,5-dimethylpiperazin-1-yl)phenyl)amino)-5-(trifluoromethyl)pyrimidin-4-yl)-4-(oxetan-3-yl)-3,4-dihydrothieno[2,3-f][1,4]thiazepin-5(2H)-one 1,1-dioxide] | ≤ 5 |
| O=C1c2sc(-c3nc(Nc4cc5c(cc4C4CC4)CN(CCOC(F)(F)F)CC5)ncc3C(F)(F)F)cc2S(=O)(=O)CCN1C1CC1 [Example 314, 4-cyclopropyl-7-(2-((7-cyclopropyl-2-(2-(trifluoromethoxy)ethyl)-1,2,3,4-tetrahydroisoquinolin-6-yl)amino)-5-(trifluoromethyl)pyrimidin-4-yl)-3,4-dihydrothieno[2,3-f][1,4]thiazepin-5(2H)-one 1,1-dioxide] | 10 to 50 |
| O=C1c2sc(-c3nc(Nc4cc5c(cc4Cl)CNCC5)ncc3C(F)(F)F)cc2S(=O)(=O)CCN1CC(F)(F)F [Example 143, 7-(2-((7-chloro-1,2,3,4-tetrahydroisoquinolin-6-yl)amino)-5-(trifluoromethyl)pyrimidin-4-yl)-4-(2,2,2-trifluoroethyl)-3,4-dihydrothieno[2,3-f][1,4]thiazepin-5(2H)-one 1,1-dioxide] | ≤ 5 |
| CC(C)(F)CN1CCc2cc(Nc3ncc(C(F)(F)F)c(-c4cc5c(s4)C(=O)N(C4CC4)CCS5(=O)=O)n3)c(C3CC3)cc2C1 [Example 299, 4-cyclopropyl-7-(2-((7-cyclopropyl-2-(2-fluoro-2-methylpropyl)-1,2,3,4-tetrahydroisoquinolin-6-yl)amino)-5-(trifluoromethyl)pyrimidin-4-yl)-3,4-dihydrothieno[2,3-f][1,4]thiazepin-5(2H)-one 1,1-dioxide] | 10 to 50 |
| O=C1c2sc(-c3nc(Nc4cc5c(cc4Cl)CNCC5)ncc3C(F)(F)F)cc2S(=O)(=O)CCN1C1CC1 [Example 155, 7-(2-((7-chloro-1,2,3,4-tetrahydroisoquinolin-6-yl)amino)-5-(trifluoromethyl)pyrimidin-4-yl)-4-cyclopropyl-3,4-dihydrothieno[2,3-f][1,4]thiazepin-5(2H)-one 1,1-dioxide] | ≤ 5 |
